In US9938322B2, “β-hairpin peptidomimetics” (priority 2013, dated 2018):
*1 amine or outer side, *2 acyl side, *3 side chain or, on linkers, in order; H or OH if unused. Where a SMILES comes first, the peptide text is derived from it. Side-chain parts run from the residue outwards. [ ]: non-standard residue; d: D form. The star is where a group is joined. Cha = N[C@@H](CC1CCCCC1)C(=O)O; NH(3-picolyl) = c1cncc(CN*)c1; Tle = CC(C)(C)[C@H](N)C(=O)O; dDab = NCC[C@@H](N)C(=O)O; hSer = N[C@@H](CCO)C(=O)O; Orn = NCCC[C@H](N)C(=O)O; Dab = NCC[C@H](N)C(=O)O; Nva = CCC[C@H](N)C(=O)O; Dap = NC[C@H](N)C(=O)O; X4 = CCCCOc1ccc(N*)cc1; CO = O=C([*:1])[*:2]; NHiPr = CC(C)N*

Test system: human red blood cells (hRBC)
Assay: Hemolysis of human red blood cells
Assay type: cell-based
Details: red cells of human, 1 h, 100
Protocol: Lyophilized peptides were weighed on a Microbalance (Mettler MT5) and dissolved in sterile water to a final concentration of 1 mg/ml. Stock solutions were kept at +4° C., light protected.
The peptides were tested for their hemolytic activity against human red blood cells (hRBC). Fresh hRBC were washed three times with phosphate buffered saline (PBS) and centrifuged for 10 min at 2000×g. Compounds (100 μg/ml) were incubated with 20% hRBC (v/v) for 1 h at 37° C. and shaking at 300 rpm. The final erythrocyte concentration was approximately 0.9×10^9 cells/ml. A value of 0% and 100% cell lyses, respectively, was determined by incubation of hRBC in the presence of PBS containing 0.001% acetic acid and 2.5% Triton X-100 in H2O, respectively. The samples were centrifuged, the supernatants were 8-fold diluted in PBS buffer and the optical densities (OD) were measured at 540 nm. The 100% lyses value (OD540H2O) gave an OD540 of approximately 0.5-1.0.
Percent hemolysis was calculated as follows: (OD540peptide/OD540H2O)×100%.

Row | Compound | Hemolysis at 100 μg/ml [%]
1 | CCC[C@@H]1NC(=O)[C@H](CCN)NC(=O)[C@H](Cc2c[nH]c3ccccc23)NC(=O)[C@H](CCN)NC(=O)[C@@H](CCN)NC(=O)[C@H](CCCN)NC(=O)[C@H](CCN)NC(=O)[C@H](Cc2ccc(O)cc2)NC(=O)[C@H](CO)NC(=O)[C@H](CC(C)C)NC(=O)[C@@H]2CCCN2C(=O)[C@H]2CCCN2C(=O)[C@H](CO)NC(=O)[C@H](C)NC1=O [compound 30] (cyclo(LSY[Dab][Orn][dDab][Dab]W[Dab][Nva]AS[dP]P)) | 1
2 | CC(C)C[C@@H]1NC(=O)[C@@H]2CCCN2C(=O)[C@H]2CCCN2C(=O)[C@H](CO)NC(=O)[C@H](C)NC(=O)[C@H](Cc2ccc(O)cc2)NC(=O)[C@H](CCN)NC(=O)[C@H](Cc2c[nH]c3ccccc23)NC(=O)[C@H](CCN)NC(=O)[C@@H](CCN)NC(=O)[C@H](CCCN)NC(=O)[C@H](CCN)NC(=O)[C@H](Cc2ccc(O)cc2)NC(=O)[C@H](CO)NC1=O [compound 31] (cyclo(LSY[Dab][Orn][dDab][Dab]W[Dab]YAS[dP]P)) | 1
3 | COc1ccc(C[C@@H]2NC(=O)[C@H](CCN)NC(=O)[C@H](Cc3c[nH]c4ccccc34)NC(=O)[C@H](CCN)NC(=O)[C@@H](CCN)NC(=O)[C@H](CCCN)NC(=O)[C@H](CCN)NC(=O)[C@H](Cc3ccc(O)cc3)NC(=O)[C@H](CO)NC(=O)[C@H](CC(C)C)NC(=O)[C@@H]3CCCN3C(=O)[C@H]3CCCN3C(=O)[C@H](CO)NC(=O)[C@H](C)NC2=O)cc1 [compound 32] (cyclo(LSY[Dab][Orn][dDab][Dab]W[Dab]Y(Me)AS[dP]P)) | 1
4 | CC(C)C[C@@H]1NC(=O)[C@@H]2CCCN2C(=O)[C@H]2CCCN2C(=O)[C@H](CO)NC(=O)[C@H](C)NC(=O)[C@H](C(C)(C)C)NC(=O)[C@H](CCN)NC(=O)[C@H](Cc2c[nH]c3ccccc23)NC(=O)[C@H](CCN)NC(=O)[C@@H](CCN)NC(=O)[C@H](CCCN)NC(=O)[C@H](CCN)NC(=O)[C@H](Cc2c[nH]c3ccccc23)NC(=O)[C@H](CO)NC1=O [compound 33] (cyclo(LSW[Dab][Orn][dDab][Dab]W[Dab][Tle]AS[dP]P)) | 3.5
5 | CC(C)C[C@@H]1NC(=O)[C@@H]2CCCN2C(=O)[C@H]2CCCN2C(=O)[C@H](CO)NC(=O)[C@H](C)NC(=O)[C@H](Cc2c[nH]c3ccccc23)NC(=O)[C@H](CCN)NC(=O)[C@H](Cc2c[nH]c3ccccc23)NC(=O)[C@H](CCN)NC(=O)[C@@H](CCN)NC(=O)[C@H](CCCN)NC(=O)[C@H](CCN)NC(=O)[C@H](Cc2ccc(O)cc2)NC(=O)[C@H](CO)NC1=O [compound 34] (cyclo(LSY[Dab][Orn][dDab][Dab]W[Dab]WAS[dP]P)) | 1
6 | CC(C)C[C@@H]1NC(=O)[C@@H]2CCCN2C(=O)[C@H]2CCCN2C(=O)[C@H](CO)NC(=O)[C@H](C)NC(=O)[C@H](C(C)C)NC(=O)[C@H](CCN)NC(=O)[C@H](Cc2c[nH]c3ccccc23)NC(=O)[C@H](CCN)NC(=O)[C@@H](CCN)NC(=O)[C@H](CCCN)NC(=O)[C@H](CCN)NC(=O)[C@H](Cc2ccc(O)cc2)NC(=O)[C@H](CO)NC1=O [compound 35] (cyclo(LSY[Dab][Orn][dDab][Dab]W[Dab]VAS[dP]P)) | 1
7 | CC(C)C[C@@H]1NC(=O)[C@@H]2CCCN2C(=O)[C@H]2CCCN2C(=O)[C@H](CO)NC(=O)[C@H](C)NC(=O)[C@H](C(C)(C)C)NC(=O)[C@H](CCN)NC(=O)[C@H](Cc2c[nH]c3ccccc23)NC(=O)[C@H](CCN)NC(=O)[C@@H](CCN)NC(=O)[C@H](CCCN)NC(=O)[C@H](CCN)NC(=O)[C@H](Cc2ccc(O)cc2)NC(=O)[C@H](CO)NC1=O [compound 36] (cyclo(LSY[Dab][Orn][dDab][Dab]W[Dab][Tle]AS[dP]P)) | 1
8 | CC(C)C[C@@H]1NC(=O)[C@@H]2CCCN2C(=O)[C@H]2CCCN2C(=O)[C@H](CO)NC(=O)[C@H](C)NC(=O)[C@H](C(C)(C)C)NC(=O)[C@H](CCO)NC(=O)[C@H](Cc2c[nH]c3ccccc23)NC(=O)[C@H](CCN)NC(=O)[C@@H](CCN)NC(=O)[C@H](CCCN)NC(=O)[C@H](CCN)NC(=O)[C@H](Cc2ccc(O)cc2)NC(=O)[C@H](CO)NC1=O [compound 37] (cyclo(LSY[Dab][Orn][dDab][Dab]W[hSer][Tle]AS[dP]P)) | 1
9 | CC(C)C[C@@H]1NC(=O)[C@@H]2CCCN2C(=O)[C@H]2CCCN2C(=O)[C@H](CO)NC(=O)[C@H](C)NC(=O)[C@H](C(C)(C)C)NC(=O)[C@H](CCN)NC(=O)[C@H](Cc2c[nH]c3ccccc23)NC(=O)[C@H](CCN)NC(=O)[C@@H](CCN)NC(=O)[C@H](CCCN)NC(=O)[C@H](CCN)NC(=O)[C@H](CC2CCCCC2)NC(=O)[C@H](CNC(=O)NCc2cccnc2)NC1=O [compound 39] (cyclo(L[Dap]([CO-NH(3-picolyl)])[Cha][Dab][Orn][dDab][Dab]W[Dab][Tle]AS[dP]P)) | 3
10 | CC(C)C[C@@H]1NC(=O)[C@@H]2CCCN2C(=O)[C@H]2CCCN2C(=O)[C@H](CO)NC(=O)[C@H](C)NC(=O)[C@H](C(C)(C)C)NC(=O)[C@H](CCN)NC(=O)[C@H](Cc2c[nH]c3ccccc23)NC(=O)[C@H](CCN)NC(=O)[C@@H](CCN)NC(=O)[C@H](CCCN)NC(=O)[C@H](CCN)NC(=O)[C@H](CC2CCCCC2)NC(=O)[C@H](CNC(=O)NC(C)C)NC1=O [compound 40] (cyclo(L[Dap]([CO-NHiPr])[Cha][Dab][Orn][dDab][Dab]W[Dab][Tle]AS[dP]P)) | 1
11 | CCCCOc1ccc(NC(=O)NC[C@@H]2NC(=O)[C@H](CC(C)C)NC(=O)[C@@H]3CCCN3C(=O)[C@H]3CCCN3C(=O)[C@H](CO)NC(=O)[C@H](C)NC(=O)[C@H](C(C)(C)C)NC(=O)[C@H](CCN)NC(=O)[C@H](Cc3c[nH]c4ccccc34)NC(=O)[C@H](CCN)NC(=O)[C@@H](CCN)NC(=O)[C@H](CCCN)NC(=O)[C@H](CCN)NC(=O)[C@H](CC3CCCCC3)NC2=O)cc1 [compound 41] (cyclo(L[Dap]([CO-X4])[Cha][Dab][Orn][dDab][Dab]W[Dab][Tle]AS[dP]P)) | 7
12 | CC(C)C[C@@H]1NC(=O)[C@@H]2CCCN2C(=O)[C@H]2CCCN2C(=O)[C@H](CN)NC(=O)[C@H](C)NC(=O)[C@H](C(C)(C)C)NC(=O)[C@H](CCO)NC(=O)[C@H](Cc2c[nH]c3ccccc23)NC(=O)[C@H](CCN)NC(=O)[C@@H](CCN)NC(=O)[C@H](CCCN)NC(=O)[C@H](CCN)NC(=O)[C@H](Cc2ccc(O)cc2)NC(=O)[C@H](CO)NC1=O [compound 42] (cyclo(LSY[Dab][Orn][dDab][Dab]W[hSer][Tle]A[Dap][dP]P)) | 1
13 | CC(C)C[C@@H]1NC(=O)[C@@H]2CCCN2C(=O)[C@H]2CCCN2C(=O)[C@H](CO)NC(=O)[C@H](C)NC(=O)[C@H](C(C)(C)C)NC(=O)[C@H](CCN)NC(=O)[C@H](Cc2c[nH]c3ccccc23)NC(=O)[C@H](CCN)NC(=O)[C@@H](CCN)NC(=O)[C@H](CCCN)NC(=O)[C@H](CCN)NC(=O)[C@H](Cc2ccc(O)cc2)NC(=O)[C@H](C)NC1=O [compound 43] (cyclo(LAY[Dab][Orn][dDab][Dab]W[Dab][Tle]AS[dP]P)) | 1
14 | CC[C@H](C)[C@@H]1NC(=O)[C@@H]2CCCN2C(=O)[C@H]2CCCN2C(=O)[C@H](CO)NC(=O)[C@H](C)NC(=O)[C@H](C(C)(C)C)NC(=O)[C@H](CCN)NC(=O)[C@H](Cc2c[nH]c3ccccc23)NC(=O)[C@H](CCN)NC(=O)[C@@H](CCN)NC(=O)[C@H](CCCN)NC(=O)[C@H](CCN)NC(=O)[C@H](Cc2ccc(O)cc2)NC(=O)[C@H](CO)NC1=O [compound 44] (cyclo(ISY[Dab][Orn][dDab][Dab]W[Dab][Tle]AS[dP]P)) | 2
15 | CC(C)[C@@H]1NC(=O)[C@@H]2CCCN2C(=O)[C@H]2CCCN2C(=O)[C@H](CO)NC(=O)[C@H](C)NC(=O)[C@H](C(C)(C)C)NC(=O)[C@H](CCN)NC(=O)[C@H](Cc2c[nH]c3ccccc23)NC(=O)[C@H](CCN)NC(=O)[C@@H](CCN)NC(=O)[C@H](CCCN)NC(=O)[C@H](CCN)NC(=O)[C@H](Cc2ccc(O)cc2)NC(=O)[C@H](CO)NC1=O [compound 45] (cyclo(VSY[Dab][Orn][dDab][Dab]W[Dab][Tle]AS[dP]P)) | 2
16 | CC(C)[C@@H]1NC(=O)[C@@H]2CCCN2C(=O)[C@H]2CCCN2C(=O)[C@H](CO)NC(=O)[C@H](C)NC(=O)[C@H](C(C)(C)C)NC(=O)[C@H](CCN)NC(=O)[C@H](Cc2c[nH]c3ccccc23)NC(=O)[C@H](CCN)NC(=O)[C@@H](CCN)NC(=O)[C@H](CCCN)NC(=O)[C@H](CCN)NC(=O)[C@H](Cc2ccc(O)cc2)NC(=O)[C@H](C)NC1=O [compound 46] (cyclo(VAY[Dab][Orn][dDab][Dab]W[Dab][Tle]AS[dP]P)) | 1
17 | CCC[C@@H]1NC(=O)[C@@H]2CCCN2C(=O)[C@H]2CCCN2C(=O)[C@H](CO)NC(=O)[C@H](C)NC(=O)[C@H](C(C)(C)C)NC(=O)[C@H](CCN)NC(=O)[C@H](Cc2c[nH]c3ccccc23)NC(=O)[C@H](CCN)NC(=O)[C@@H](CCN)NC(=O)[C@H](CCCN)NC(=O)[C@H](CCN)NC(=O)[C@H](Cc2ccc(O)cc2)NC(=O)[C@H](CO)NC1=O [compound 47] (cyclo([Nva]SY[Dab][Orn][dDab][Dab]W[Dab][Tle]AS[dP]P)) | 1
18 | CCC[C@@H]1NC(=O)[C@@H]2CCCN2C(=O)[C@H]2CCCN2C(=O)[C@H](CO)NC(=O)[C@H](C)NC(=O)[C@H](C(C)(C)C)NC(=O)[C@H](CCN)NC(=O)[C@H](Cc2c[nH]c3ccccc23)NC(=O)[C@H](CCN)NC(=O)[C@@H](CCN)NC(=O)[C@H](CCCN)NC(=O)[C@H](CCN)NC(=O)[C@H](Cc2ccc(O)cc2)NC(=O)[C@H](C)NC1=O [compound 48] (cyclo([Nva]AY[Dab][Orn][dDab][Dab]W[Dab][Tle]AS[dP]P)) | 1
